# Results as given in article PMC4774972, “Activity and Predicted Nephrotoxicity of Synthetic Antibiotics Based on Polymyxin B” (Journal of Medicinal Chemistry, 2016).
# Read-outs that look alike come from different tables or passages of the source. Bridge positions count the residues as written; N and C are the ends. Square brackets hold non-standard residues; d marks the D form. Peptide text beside a SMILES is read from it. * marks the point of attachment. Phe(4-NH2) = Nc1ccc(C[C@H](N)C(=O)O)cc1; Octanoyl = CCCCCCCC(=O)*; Dab = NCC[C@H](N)C(=O)O
# Assays:
# [1] = test system: P. aeruginosa FADDI-PA070, PmxR; format: cell-based, Pseudomonas aeruginosa; conditions: polymyxin resistant clinical isolate; MHB, 5 × 10^5 CFU/mL, 18 h at 37 °C
# Procedure: (§1) Bacteria were either obtained from American Type Culture Collection (ATCC; Manassas, VA, USA) or independent academic clinical isolate collections, as listed in Table S2. Bacteria were cultured in nutrient broth (NB; Bacto Laboratories, catalog no. 234000) or Muller Hinton broth (MHB; Bacto Laboratories, catalog no. 211443) at 37 °C overnight with shaking (∼180 rpm). A sample of each culture was then diluted 50-fold in fresh MHB and incubated at 37 °C for 1.5–3 h with shaking (∼180 rpm). Compound stock solutions were prepared as 0.64 or 2.56 mg/mL in water. The compounds, at twice the final desired concentration, were serially diluted 2-fold across the wells of 96-well plates (Polystyrene, Corning, catalogue No. 3370). Mid log phase bacterial cultures (after 1.5–3 h incubation) were diluted to a final concentration of 5 × 10^5 colony forming units (CFU)/mL, and 50 μL was added to each well giving a final compound concentration range of 32 μg/mL to 0.015 μg/mL (128–0.06 μg/mL for colistin and polymyxin B against the polymyxin resistant clinical isolates). MICs were determined visually after 18 h of incubation at 37 °C, with the MIC defined as the lowest compound concentration at which no bacterial growth was visible.
# (§2) Table S2. Bacterial strains used for Minimum Inhibitory Concentration (MIC) […]
# (§3) Organism Strain Strain description Strain Source
# (§4) Escherichia coli ATCC 25922 FDA strain Seattle 1946 ATCC
# (§5) Klebsiella pneumoniae ATCC 13883 Control strain ATCC
# (§6) Klebsiella pneumoniae ATCC 700603 Multi-drug resistant ATCC
# (§7) Klebsiella pneumoniae BAA-2146 Metallo-beta-lactamase- ATCC
# (§8) Acinetobacter baumannii ATCC 19606 Type strain ATCC
# (§9) Pseudomonas aeruginosa ATCC 27853 Type strain ATCC
# (§10) Pseudomonas aeruginosa FADDI-PA070 Clinical isolate, Nation and Li labs, polymyxin resistant Monash University
# (§11) Clinical isolate, Wang Hengzhuang, Pseudomonas aeruginosa PA9704 polymyxin resistant University Hospital of […]
# (§12) Ptyela Clinical isolate, Ilias Karaiskos and Acinetobacter baumannii Carbapenem & Helen Giamarellou
# (§13) Clinical isolate, Medicine, Hygeia
# (§14) Klebsiella pneumoniae Koprana Carbapenem, & General Hospital, […]
# (§15) Clinical isolate, (Instituto Dante […]
# (§16) polymyxin resistant Cardiologia, São […]
# [2] = test system: P. aeruginosa PA9704, PmxR; format: cell-based, Pseudomonas aeruginosa; conditions: polymyxin resistant clinical isolate; MHB, 5 × 10^5 CFU/mL, 18 h at 37 °C
# Procedure: as §1, §2, §3, §4, §5, §6, §7, §8, §9, §10, §11, §12, §13, §14, §15, §16
# [3] = test system: E. coli ATCC 25922; assay: microbe, parasite or virus in culture; format: cell-based, Escherichia coli; conditions: MHB, 5 × 10^5 CFU/mL, read visually after 18 h at 37 °C
# Procedure: as §1, §2, §3, §4, §5, §6, §7, §8, §9, §10, §11, §12, §13, §14, §15, §16
# [4] = test system: P. aeruginosa ATCC 27853; assay: microbe, parasite or virus in culture; format: cell-based, Pseudomonas aeruginosa; conditions: MHB, 5 × 10^5 CFU/mL, read visually after 18 h at 37 °C
# Procedure: as §1, §2, §3, §4, §5, §6, §7, §8, §9, §10, §11, §12, §13, §14, §15, §16
# [5] = test system: K. pneumoniae ATCC 700603, MDR; format: cell-based, Klebsiella pneumoniae; conditions: MHB, 5 × 10^5 CFU/mL, read visually after 18 h at 37 °C
# Procedure: as §1, §2, §3, §4, §5, §6, §7, §8, §9, §10, §11, §12, §13, §14, §15, §16
# [6] = test system: K. pneumoniae ATTC BAA-2146, NDM-1 pos; format: cell-based, Klebsiella pneumoniae; conditions: MHB, 5 × 10^5 CFU/mL, read visually after 18 h at 37 °C
# Procedure: as §1, §2, §3, §4, §5, §6, §7, §8, §9, §10, §11, §12, §13, §14, §15, §16
# [7] = test system: primary human renal proximal tubule epithelial (hPT) cells; assay: Nephrotoxicity assay, GGT release; format: cell-based; conditions: primary human kidney cells
# Description: (§17) Primary human renal proximal tubule epithelial (hPT) cells were isolated and used for in vitro prediction of drug-induced nephrotoxicity[63],[64],[69] by measuring the release of metabolism enzymes, LDH and GGT, as previously described.[70]
# [8] = test system: A. baumannii ATCC 19606; format: cell-based, Acinetobacter baumannii; conditions: MHB, 5 × 10^5 CFU/mL, read visually after 18 h at 37 °C
# Procedure: as §1, §2, §3, §4, §5, §6, §7, §8, §9, §10, §11, §12, §13, §14, §15, §16
# [9] = test system: HEK293 cells; assay: Cytotoxicity assay (resazurin assay); format: cell-based, human; conditions: 4000 cells/well, 24 h incubation with compound, fluorescence 560/590
# [10] = test system: HepG2 cells; assay: Cytotoxicity assay (resazurin assay); format: cell-based, human; conditions: 4000 cells/well, 24 h incubation with compound, fluorescence 560/590
# [11] = test system: A. baumannii CI Ptyela 100734512:2, PmxR; assay: microbe, parasite or virus in culture; format: cell-based, Acinetobacter baumannii; conditions: carbapenem & polymyxin resistant clinical isolate, MHB, 5 × 10^5 CFU/mL, 18 h at 37 °C
# [12] = test system: K. pneumoniae ATCC 13883; assay: microbe, parasite or virus in culture; format: cell-based, Klebsiella pneumoniae; conditions: MHB, 5 × 10^5 CFU/mL, read visually after 18 h at 37 °C
# [13] = test system: K. pneumoniae CI Koprana 100650661:1, PmxR; assay: microbe, parasite or virus in culture; format: cell-based, Klebsiella pneumoniae; conditions: carbapenem & polymyxin resistant clinical isolate, MHB, 5 × 10^5 CFU/mL, 18 h at 37 °C
# [14] = test system: K. pneumoniae CI 138-16357-20362, PmxR; assay: microbe, parasite or virus in culture; format: cell-based, Klebsiella pneumoniae; conditions: carbapenem & polymyxin resistant clinical isolate, MHB, 5 × 10^5 CFU/mL, 18 h at 37 °C
# [15] = test system: primary human renal proximal tubule epithelial (hPT) cells; assay: Nephrotoxicity assay, LDH release; format: cell-based; conditions: primary human kidney cells
# Description: as §17
# [16] = test system: S. aureus ATCC 25923, MSSA; assay: microbe, parasite or virus in culture; format: cell-based, Staphylococcus aureus; conditions: MHB, 5 × 10^5 CFU/mL, read visually after 18 h at 37 °C
# [17] = test system: K. pneumoniae ATCC 13883; conditions: MIC K. pneumoniae ATCC 13883 (µg/mL)
# [18] = test system: K. pneumoniae ATCC 700603, MDR; conditions: MIC K. pneumoniae ATCC 700603, MDR(µg/mL)
# [19] = test system: P. aeruginosa ATCC 27853; conditions: MIC P. aeruginosa ATCC 27853 (µg/mL)
# [20] = test system: P. aeruginosa FADDI-PA070, PmxR; conditions: MIC P. aeruginosa FADDI-PA070, PmxR (µg/mL)
# [21] = test system: A. baumannii CI Ptyela 100734512:2, PmxR; conditions: MIC A. baumannii CI Ptyela 100734512:2, PmxR (µg/mL)
# [22] = test system: K. pneumoniae CI Koprana 100650661:1, PmxR; conditions: MIC K. pneumoniae CI Koprana 100650661:1, PmxR (µg/mL)
# [23] = test system: K. pneumoniae CI 138-16357-20362, PmxR; conditions: MIC K. pneumoniae CI 138-16357-20362, PmxR (µg/mL)
# [24] = test system: K. pneumoniae ATTC BAA-2146, NDM-1 pos; conditions: MIC K. pneumoniae ATTC BAA-2146, NDM-1 pos (µg/mL)
# [25] = test system: P. aeruginosa PA9704, PmxR; conditions: MIC P. aeruginosa PA9704, PmxR (µg/mL)
# [26] = test system: E. coli ATCC 25922; conditions: MIC E. coli ATCC 25922 (µg/mL)
# [27] = test system: A. baumannii ATCC 19606; conditions: MIC A. baumannii ATCC 19606 (µg/mL)
# [28] = test system: S. aureus ATCC 25923, MSSA; conditions: MIC S. aureus ATCC 25923, MSSA (µg/mL)
# [29] = test system: HepG2; conditions: CC50 HepG2 (µM)
molecule,measurement,setting,value
"6Me-C7CO/ 6Me-C6CO Dab Thr Dab Dab Dab D-Leu Leu Dab Dab (lariat or depsi) [Colistin 2, polymyxin E (colistin), macrocyclic lipodecapeptide antibiotic, D-Leu at position-6, reference compound]","MIC P. aeruginosa FADDI-PA070, PmxR",[1],>32 µg/mL
same,"MIC P. aeruginosa PA9704, PmxR",[2],128 µg/mL
same,MIC E. coli ATCC 25922,[3],0.25 µg/mL
same,MIC P. aeruginosa ATCC 27853,[4],0.5 µg/mL
same,"MIC K. pneumoniae ATCC 700603, MDR",[5],0.25 µg/mL
same,"MIC K. pneumoniae ATTC BAA-2146, NDM-1 pos",[6],0.25 µg/mL
same,GGT release CC50,[7],48 µg/mL
same,MIC A. baumannii ATCC 19606,[8],0.25 µg/mL
same,HEK293 CC50,[9],>300 µM
same,HepG2 - CC50,[10],>300 µM
same,"MIC A. baumannii CI Ptyela 100734512:2, PmxR",[11],>64 µg/mL
same,MIC K. pneumoniae ATCC 13883,[12],0.25 µg/mL
same,"MIC K. pneumoniae CI Koprana 100650661:1, PmxR",[13],>128 µg/mL
same,"MIC K. pneumoniae CI 138-16357-20362, PmxR",[14],64 µg/mL
same,LDH release CC50,[15],25 µg/mL
same,"MIC S. aureus ATCC 25923, MSSA",[16],>128 µg/mL
"CNC(C)C1CCC(N)C(OC2C(N)CC(N)C(OC3OCC(C)(O)C(NC)C3O)C2O)O1 (stereo not drawn) [Gentamicin, reference compound]",MIC,"[3]; Escherichia coli, ATCC25922, 18 h",0.25 µg/mL
same,MIC,"[4]; Pseudomonas aeruginosa, ATCC27853",1 µg/mL
same,GGT release CC50,[7],33 µg/mL
same,HEK293 CC50,[9],>300 µM
same,HepG2 - CC50,[10],>300 µM
same,MIC,[11]; Acinetobacter baumannii,> 32 µg/mL
same,MIC,"[12]; Klebsiella pneumoniae, ATCC13883",0.25 µg/mL
same,MIC,[13]; Klebsiella pneumoniae,> 32 µg/mL
same,MIC,[14]; Klebsiella pneumoniae,1 µg/mL
same,LDH release CC50,[15],33 µg/mL
CCCCCCCC(=O)N[C@@H](CCN)C(=O)N[C@H](C(=O)N[C@@H](CCN)C(=O)N[C@H]1CCNC(=O)[C@H]([C@@H](C)O)NC(=O)[C@H](CCN)NC(=O)[C@H](CCN)NC(=O)[C@H](CC(C)C)NC(=O)[C@@H](Cc2ccccc2)NC(=O)[C@H](Cc2ccc(N)cc2)NC1=O)[C@@H](C)O [Compound 34] (Octanoyl-[Dab]T[Dab][Dab][Phe(4-NH2)][dF]L[Dab][Dab]T; lactam 4-C),"MIC K. pneumoniae ATTC BAA-2146, NDM-1 pos",[6],>32 µg/mL
same,MIC,[17],> 32 µg/mL
same,MIC,[18],> 32 µg/mL
same,MIC,[19],> 32 µg/mL
same,MIC,[20],> 32 µg/mL
same,MIC,[21],> 32 µg/mL
same,MIC,[22],> 32 µg/mL
same,MIC,[23],> 32 µg/mL
same,MIC,[24],> 32 µg/mL
same,MIC,[25],> 32 µg/mL
same,MIC,[26],> 32 µg/mL
same,MIC,[27],> 32 µg/mL
same,MIC,[28],> 32 µg/mL
same,CC50,[29],> 300 µM
same,"MIC K. pneumoniae CI Koprana 100650661:1, PmxR",[13],>32 µg/mL
same,"MIC K. pneumoniae CI 138-16357-20362, PmxR",[14],>32 µg/mL
